# Assay results reported in ChEMBL document CHEMBL1201862, “PubChem BioAssay data set” (2004).
#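 Method: 48-hour compound exposure of cells in 96-well plates, five concentrations, linear interpolation of endpoints. GI50: concentration for 50% inhibition of growth.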 The source made the active and inactive calls. No stated cut-off is given here; in the data, active = GI50 up to about 1.1 µM and inactive = higher.
# How the values were obtained:
# Assay in all cases: inhibition of tumour cell growth, NCI panel, 48 h
# HCT-116 = test system: HCT-116
# DMS-273 = test system: DMS-273
# MDA-N = test system: MDA-N
# KM12 = test system: KM12
# OVCAR-5 = test system: OVCAR-5
# UO-31 = test system: UO-31
# HCT-15 = test system: HCT-15
# M14 = test system: M14
# DU-145 = test system: DU-145
# Hs-578T = test system: Hs-578T
# OVCAR-8 = test system: OVCAR-8
# EKVX = test system: EKVX
# PC-3 = test system: PC-3
# K562 = test system: K562
# SNB-75 = test system: SNB-75
# BT-549 = test system: BT-549
# SF-268 = test system: SF-268
# COLO 205 = test system: COLO 205
# NCI-H460 = test system: NCI-H460
# LOX IMVI = test system: LOX IMVI
SMILES,GI50 (HCT-116),GI50 (DMS-273),GI50 (MDA-N),GI50 (KM12),GI50 (OVCAR-5),GI50 (UO-31),GI50 (HCT-15) [µM],GI50 (M14),GI50 (DU-145),GI50 (Hs-578T),GI50 (OVCAR-8),GI50 (EKVX),GI50 (PC-3),GI50 (K562),GI50 (SNB-75),GI50 (BT-549),GI50 (SF-268),GI50 (COLO 205),GI50 (NCI-H460),GI50 (LOX IMVI)
Cc1cc(N(CCC#N)CCC#N)ccc1/C=C(\NC(=O)/C=C/c1ccccc1)C(=O)Nc1ccc(Cl)cc1,5.41 µM (inactive),0.982 µM (active),5.01 µM (inactive),3.74 µM (inactive),54.6 µM (inactive),11 µM (inactive),11.7,9.16 µM (inactive),> 100 µM (inactive),> 100 µM (inactive),> 100 µM (inactive),> 80.2 µM (inactive),0.586 µM (active),0.364 µM (active),> 52.4 µM (inactive),> 100 µM (inactive),> 100 µM (inactive),1.07 µM (active),52.4 µM (inactive),1.14 µM (inactive)
CN(C)C(=S)NC(=S)Nc1ccc2ccccc2c1,6.65 µM (inactive),1.67 µM (inactive),12.9 µM (inactive),12.4 µM (inactive),21.2 µM (inactive),16.1 µM (inactive),9.89,12.7 µM (inactive),18.2 µM (inactive),33.1 µM (inactive),9.64 µM (inactive),14.1 µM (inactive),6.1 µM (inactive),2.65 µM (inactive),24.3 µM (inactive),16 µM (inactive),10.3 µM (inactive),13.7 µM (inactive),3.94 µM (inactive),6.64 µM (inactive)
O=C(CCN1CCCCC1)Nc1ccc2c(c1)C(=O)c1ccc(NC(=O)CCN3CCCCC3)cc1C2=O,1.71 µM (inactive),1.71 µM (inactive),1.65 µM (inactive),1.62 µM (inactive),16.5 µM (inactive),12.4 µM (inactive),2.59,5.73 µM (inactive),14 µM (inactive),11.7 µM (inactive),5.57 µM (inactive),15.6 µM (inactive),2.26 µM (inactive),2.25 µM (inactive),3.82 µM (inactive),14.6 µM (inactive),7.96 µM (inactive),10.9 µM (inactive),1.57 µM (inactive),1.75 µM (inactive)
